# Experimental data reported in ChEMBL document CHEMBL5543149, “Discovery of Novel Aryl Triazolone Dihydropyridines (ATDPs) Targeting Highly Conserved Residue W229 as Promising HIV-1 NNRTIs” (J Med Chem, 2024).
# Assays:
# [1] = tested on: Human immunodeficiency virus 1; assay: Antiviral activity against NNRTI-resistant HIV-1 harboring L100I mutant infected in human MT4 cells assessed as protection against virus-induced cytopathic effect by MTT assay; type: functional, organism-based; details: Human immunodeficiency virus 1, MT4
# [2] = tested on: Human immunodeficiency virus 1; assay: Antiviral activity against wild type HIV-1 IIIB infected in human MT4 cells assessed as protection against virus-induced cytopathic effect incubated for 5 days by MTT assay; type: functional, organism-based; details: Human immunodeficiency virus 1, IIIB, MT4, 120 h
# [3] = tested on: Human immunodeficiency virus 1; assay: Antiviral activity against NNRTI-resistant HIV-1 harboring Y188L mutant infected in human MT4 cells assessed as protection against virus-induced cytopathic effect by MTT assay; type: functional, organism-based; details: Human immunodeficiency virus 1, MT4
# [4] = tested on: Human immunodeficiency virus 1; assay: Antiviral activity against NNRTI-resistant HIV-1 harboring E138K mutant infected in human MT4 cells assessed as protection against virus-induced cytopathic effect by MTT assay; type: functional, organism-based; details: Human immunodeficiency virus 1, MT4
# [5] = Selectivity index, ratio of CC50 for cytotoxicity against human MT4 cells assessed as reduction in cell viability by MTT assay to EC50 for antiviral activity against wild type HIV-1 IIIB infected in human MT4 cells assessed as protection against virus-induced cytopathic effect; type: toxicity, cell-based; details: read-out: Ratio CC50/EC50
# [6] = tested on: Human immunodeficiency virus 1; assay: Antiviral activity against NNRTI-resistant HIV-1 harboring RES056 mutant infected in human MT4 cells assessed as protection against virus-induced cytopathic effect by MTT assay; type: functional, organism-based; details: Human immunodeficiency virus 1, MT4
# [7] = biological target: Human immunodeficiency virus type 1 reverse transcriptase (Human immunodeficiency virus 1, UniProt Q72547); assay: Inhibition of wild type HIV-1 Reverse transcriptase assessed as reduction of biotin-dUTP incorporation into […] using ABTS as substrate preincubated with compound for 1 hr followed by substrate addition in presence of biotin-labeled dNTPs by ELISA analysis
# [8] = Cytotoxicity against human MT4 cells assessed as reduction in cell viability by MTT assay; type: toxicity, cell-based
# [9] = tested on: Human immunodeficiency virus 1; assay: Antiviral activity against NNRTI-resistant HIV-1 harboring Y181C mutant infected in human MT4 cells assessed as protection against virus-induced cytopathic effect by MTT assay; type: functional, organism-based; details: Human immunodeficiency virus 1, MT4
# [10] = tested on: Human immunodeficiency virus 1; assay: Antiviral activity against NNRTI-resistant HIV-1 harboring K103N mutant infected in human MT4 cells assessed as protection against virus-induced cytopathic effect by MTT assay; type: functional, organism-based; details: Human immunodeficiency virus 1, MT4
Structure (SMILES),EC50 [1],EC50 [2],EC50 [3],EC50 [4],selectivity ratio [5],EC50 [6],IC50 [7],CC50 [8],EC50 [9],EC50 [10]
Cn1c(Cn2ccc(C(F)(F)F)c(Oc3cc(Cl)cc(-c4ccncc4)c3)c2=O)n[nH]c1=O,12 nM,15 nM,1320 nM,39 nM,4700,962 nM,80 nM,70500 nM,40 nM,22 nM
Cn1c(Cn2ccc(C(F)(F)F)c(Oc3cc(Cl)cc(-c4cnc5ccccc5c4)c3)c2=O)n[nH]c1=O,–,436 nM,–,–,133,–,–,58100 nM,–,–
Cn1c(Cn2ccc(C(F)(F)F)c(Oc3cc(Cl)cc(-c4cc5ccccc5s4)c3)c2=O)n[nH]c1=O,12 nM,12 nM,639 nM,17 nM,8420,185 nM,40 nM,101000 nM,38 nM,18 nM
Cn1c(Cn2ccc(C(F)(F)F)c(Oc3cc(Cl)cc(-c4ccccc4)c3)c2=O)n[nH]c1=O,–,370 nM,–,–,505,–,–,187000 nM,–,–
Cn1c(Cn2ccc(C(F)(F)F)c(Oc3cc(Cl)cc(-c4ccsc4)c3)c2=O)n[nH]c1=O,–,41 nM,–,–,2130,–,–,87200 nM,–,–
Cn1c(Cn2ccc(C(F)(F)F)c(Oc3cc(Cl)cc(-c4ccc(N)cc4)c3)c2=O)n[nH]c1=O,–,158 nM,–,–,213,–,–,33700 nM,–,–
Cn1c(Cn2ccc(C(F)(F)F)c(Oc3cc(Cl)cc(-c4ccc(F)cc4)c3)c2=O)n[nH]c1=O,–,195 nM,–,–,161,–,–,31300 nM,–,–
Cn1c(Cn2ccc(C(F)(F)F)c(Oc3cc(Cl)cc(-c4cnc(N)nc4)c3)c2=O)n[nH]c1=O,–,168 nM,–,–,19,–,–,3240 nM,–,–
Cn1c(Cn2ccc(C(F)(F)F)c(Oc3cc(Cl)cc(-c4ccco4)c3)c2=O)n[nH]c1=O,–,190 nM,–,–,311,–,–,59100 nM,–,–
Cn1c(Cn2ccc(C(F)(F)F)c(Oc3cc(Cl)cc(-c4ccoc4)c3)c2=O)n[nH]c1=O,–,280 nM,–,–,205,–,–,57400 nM,–,–
Cn1c(Cn2ccc(C(F)(F)F)c(Oc3cc(Cl)cc(-c4ccc([N+](=O)[O-])cc4)c3)c2=O)n[nH]c1=O,–,31 nM,–,–,1460,–,–,45400 nM,–,–
Cn1c(Cn2ccc(C(F)(F)F)c(Oc3cc(Cl)cc(-c4ccc(N)nc4)c3)c2=O)n[nH]c1=O,–,209 nM,–,–,154,–,–,32100 nM,–,–
Cn1c(Cn2ccc(C(F)(F)F)c(Oc3cc(Cl)cc(-c4cccnc4)c3)c2=O)n[nH]c1=O,–,61 nM,–,–,210,–,–,12800 nM,–,–
Cc1ccc(-c2cc(Cl)cc(Oc3c(C(F)(F)F)ccn(Cc4n[nH]c(=O)n4C)c3=O)c2)cc1,13 nM,8 nM,1350 nM,37 nM,11800,344 nM,30 nM,94200 nM,29 nM,17 nM
Cn1c(Cn2ccc(C(F)(F)F)c(Oc3cc(Cl)cc(-c4ccc(O)cc4)c3)c2=O)n[nH]c1=O,–,361 nM,–,–,45,–,–,16200 nM,–,–
Cn1c(Cn2ccc(C(F)(F)F)c(Oc3cc(Cl)cc(-c4ccc(C(N)=O)cc4)c3)c2=O)n[nH]c1=O,–,261 nM,–,–,284,–,–,74200 nM,–,–
COC(=O)c1ccc(-c2cc(Cl)cc(Oc3c(C(F)(F)F)ccn(Cc4n[nH]c(=O)n4C)c3=O)c2)cc1,11 nM,11 nM,760 nM,16 nM,4360,177 nM,30 nM,47900 nM,17 nM,19 nM
Cn1c(Cn2ccc(C(F)(F)F)c(Oc3cc(Cl)cc(-c4cncnc4)c3)c2=O)n[nH]c1=O,19 nM,10 nM,1480 nM,25 nM,6470,91 nM,40 nM,64700 nM,43 nM,42 nM
Cn1c(Cn2ccc(C(F)(F)F)c(Oc3cc(Cl)cc(C(=O)O)c3)c2=O)n[nH]c1=O,–,5310 nM,–,–,6,–,–,34200 nM,–,–
Cn1c(Cn2ccc(C(F)(F)F)c(Oc3cc(Cl)cc(-c4ccc(C#N)cc4)c3)c2=O)n[nH]c1=O,–,47 nM,–,–,109,–,–,5130 nM,–,–
Cn1c(Cn2ccc(C(F)(F)F)c(Oc3cc(Cl)cc(Br)c3)c2=O)n[nH]c1=O,12 nM,10 nM,1340 nM,28 nM,14200,225 nM,30 nM,142000 nM,23 nM,22 nM
Cn1c(Cn2ccc(C(F)(F)F)c(Oc3cc(Cl)cc(-c4cccs4)c3)c2=O)n[nH]c1=O,–,959 nM,–,–,48,–,–,45800 nM,–,–
Cn1c(Cn2ccc(C(F)(F)F)c(Oc3cc(Cl)cc(C(N)=O)c3)c2=O)n[nH]c1=O,–,2030 nM,–,–,14,–,–,28500 nM,–,–
Cn1c(Cn2ccc(C(F)(F)F)c(Oc3cc(Cl)cc(-c4ccc(Cl)cc4)c3)c2=O)n[nH]c1=O,14 nM,11 nM,1490 nM,28 nM,–,401 nM,20 nM,124000 nM,30 nM,19 nM
Cn1c(Cn2ccc(C(F)(F)F)c(Oc3cc(Cl)cc(C#N)c3)c2=O)n[nH]c1=O [DORAVIRINE],13 nM,8 nM,2080 nM,37 nM,–,128 nM,–,> 294000 nM,27 nM,14 nM
